Values of other authors as cited in patent US20050255458A1, “Drug discovery assays based on the biology of chronic disease” (priority 2002, published 2005).
Like-named read-outs stand apart in the source and are kept apart here. Where a SMILES comes first, the peptide text is derived from it. [ ]: non-standard residue; d: D form. Aoe = N[C@@H](CCCCCC(=O)[C@@H]1CO1)C(=O)O

How the values were obtained:
AR gene = details: cited from earlier work
ERK [1] = details: cited from earlier work
ERK1/2 = details: cited studies, various cells; cited from earlier work
TF = details: cited from earlier work; for effect on Cu^+2 induced procoagulant activity: probucol 20, vitamin E 50, BHT 50, U74389G 20 μmol/L
Rb = details: cited from earlier work; for increase in Rb mRNA: MEL cells, maximum on day three of induction
[2] = system: obese (fa/fa) Zucker rats; details: cited from earlier work
ERK [3] = details: A variety of cell types; cited from earlier work
anagen hair follicles = details: cited from earlier work; for scalp hair growth: Philpott 1996
ACE [4] = molecular target: T1, ACE (Mus musculus, UniProt P09470); details: cited from earlier work
T1 sequence (P09470 35-1312): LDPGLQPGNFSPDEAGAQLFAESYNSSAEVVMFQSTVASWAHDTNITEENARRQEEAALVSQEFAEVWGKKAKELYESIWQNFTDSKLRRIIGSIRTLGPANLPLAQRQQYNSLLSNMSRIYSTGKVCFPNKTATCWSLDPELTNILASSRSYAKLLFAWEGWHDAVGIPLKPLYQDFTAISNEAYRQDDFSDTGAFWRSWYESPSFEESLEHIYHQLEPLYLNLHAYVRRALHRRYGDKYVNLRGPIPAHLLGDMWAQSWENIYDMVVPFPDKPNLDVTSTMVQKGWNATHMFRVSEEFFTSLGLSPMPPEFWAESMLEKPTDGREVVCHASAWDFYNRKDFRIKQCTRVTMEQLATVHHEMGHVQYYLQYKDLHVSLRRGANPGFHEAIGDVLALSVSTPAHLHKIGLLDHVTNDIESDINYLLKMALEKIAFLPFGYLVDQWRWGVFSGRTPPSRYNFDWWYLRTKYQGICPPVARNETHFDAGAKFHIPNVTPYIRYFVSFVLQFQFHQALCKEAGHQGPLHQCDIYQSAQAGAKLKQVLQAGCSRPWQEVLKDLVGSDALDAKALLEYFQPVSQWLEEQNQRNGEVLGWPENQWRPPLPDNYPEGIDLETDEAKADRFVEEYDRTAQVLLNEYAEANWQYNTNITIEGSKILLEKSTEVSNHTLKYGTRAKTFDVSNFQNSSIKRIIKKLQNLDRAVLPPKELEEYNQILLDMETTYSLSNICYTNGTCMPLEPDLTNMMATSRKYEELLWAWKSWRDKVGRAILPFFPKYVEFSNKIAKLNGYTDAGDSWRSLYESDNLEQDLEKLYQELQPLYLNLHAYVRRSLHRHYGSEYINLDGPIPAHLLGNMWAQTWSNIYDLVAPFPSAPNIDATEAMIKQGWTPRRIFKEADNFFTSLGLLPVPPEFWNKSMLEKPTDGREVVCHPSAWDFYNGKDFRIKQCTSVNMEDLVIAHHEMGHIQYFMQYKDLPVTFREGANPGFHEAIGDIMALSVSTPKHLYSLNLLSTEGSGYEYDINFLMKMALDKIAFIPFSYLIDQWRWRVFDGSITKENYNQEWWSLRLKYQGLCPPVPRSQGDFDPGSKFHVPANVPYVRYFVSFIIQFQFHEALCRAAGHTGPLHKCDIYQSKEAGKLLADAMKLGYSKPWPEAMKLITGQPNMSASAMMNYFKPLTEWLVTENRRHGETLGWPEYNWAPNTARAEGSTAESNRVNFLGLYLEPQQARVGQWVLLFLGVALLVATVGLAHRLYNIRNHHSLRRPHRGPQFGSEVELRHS

ACE [5] = molecular target: T2, ACE (Oryctolagus cuniculus, UniProt P12822); details: cited from earlier work
T2 construct: from tissue; host or cells: whole animal, in vivo (Watanabe rabbit)
T2 sequence (P12822 34-1310): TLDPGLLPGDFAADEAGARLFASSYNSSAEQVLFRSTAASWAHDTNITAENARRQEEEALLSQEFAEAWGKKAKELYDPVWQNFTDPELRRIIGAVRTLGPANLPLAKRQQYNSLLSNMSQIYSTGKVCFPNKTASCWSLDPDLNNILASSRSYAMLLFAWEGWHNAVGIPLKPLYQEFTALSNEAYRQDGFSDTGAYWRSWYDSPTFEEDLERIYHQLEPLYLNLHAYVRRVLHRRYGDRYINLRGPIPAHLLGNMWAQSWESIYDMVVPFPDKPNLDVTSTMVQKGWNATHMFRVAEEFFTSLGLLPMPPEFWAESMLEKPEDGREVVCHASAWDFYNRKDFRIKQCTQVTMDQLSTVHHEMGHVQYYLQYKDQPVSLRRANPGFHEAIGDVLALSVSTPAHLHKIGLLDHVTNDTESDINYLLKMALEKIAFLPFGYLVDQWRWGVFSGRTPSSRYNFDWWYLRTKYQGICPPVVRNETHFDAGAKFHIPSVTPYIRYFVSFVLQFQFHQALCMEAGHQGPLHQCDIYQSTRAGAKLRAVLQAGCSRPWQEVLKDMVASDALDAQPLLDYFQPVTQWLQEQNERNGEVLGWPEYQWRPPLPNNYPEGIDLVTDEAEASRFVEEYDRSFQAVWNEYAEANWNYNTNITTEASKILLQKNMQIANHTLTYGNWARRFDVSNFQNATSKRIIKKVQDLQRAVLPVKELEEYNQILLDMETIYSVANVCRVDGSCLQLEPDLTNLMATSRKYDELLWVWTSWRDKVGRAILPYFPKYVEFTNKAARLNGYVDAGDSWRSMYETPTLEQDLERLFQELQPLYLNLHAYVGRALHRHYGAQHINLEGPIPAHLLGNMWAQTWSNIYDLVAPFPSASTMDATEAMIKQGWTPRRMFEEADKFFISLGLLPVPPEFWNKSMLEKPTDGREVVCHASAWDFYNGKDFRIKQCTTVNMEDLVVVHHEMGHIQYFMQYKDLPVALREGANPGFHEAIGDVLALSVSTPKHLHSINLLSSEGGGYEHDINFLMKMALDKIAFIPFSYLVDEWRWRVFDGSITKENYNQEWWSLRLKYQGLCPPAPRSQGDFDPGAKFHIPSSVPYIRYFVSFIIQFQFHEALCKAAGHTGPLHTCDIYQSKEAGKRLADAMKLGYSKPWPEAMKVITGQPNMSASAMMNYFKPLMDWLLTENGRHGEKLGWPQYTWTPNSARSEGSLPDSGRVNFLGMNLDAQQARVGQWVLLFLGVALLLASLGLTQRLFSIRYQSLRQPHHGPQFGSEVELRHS

For interleukin 6: cytokine, ERK agent, the “AR mRNA” value (AR gene; LNCaP (Lin 2001)) is given as “decreased AR mRNA”, the ERK phosphorylation (ERK [1]; AF-10 human B cell line) is given as “increased ERK phosphorylation” and the ERK phosphorylation (ERK [1]; LNCaP cells) is given as “increased ERK phosphorylation”. The “phosphorylation of ERK1/2” value (ERK1/2) was “phosphorylation of ERK1/2”.
In the case of CC[C@H]1CN2CCc3cc(OC)c(OC)cc3[C@@H]2C[C@@H]1C[C@H]1NCCc2cc(OC)c(OC)cc21 [emetine], the “c-mos expression and ERK phosphorylation” value (ERK [1]; starfish eggs) is listed as “inhibition of c-mos expression and ERK phosphorylation”.
In the case of Cc1cc(C(C)(C)C)c(O)c(C(C)(C)C)c1 [BHT], the “effect on Cu^+2 induced procoagulant activity” value (TF) is given as “inhibited the Cu^+2 induced procoagulant activity”.
In the case of C[C@]12C=CC(=O)C=C1CC[C@@H]1C2=CC[C@]2(C)[C@@H](C(=O)CN3CCN(c4cc(N5CCCC5)nc(N5CCCC5)n4)CC3)CC[C@@H]12.O=C(O)/C=C\C(=O)O [U74389G], the “effect on Cu^+2 induced procoagulant activity” value (TF) is given as “inhibited the Cu^+2 induced procoagulant activity”.
In the case of [Zn] [zinc], the “phosphorylation of ERK1/2” value (ERK1/2) is given as “phosphorylation of ERK1/2”.
For CC(=O)NCCCCCCNC(C)=O [HMBA, hexamethylene bisacetamide], the “cells irreversibly committed to differentiate” value (Rb; DS19/Sc9, 48 h of culture) is listed as “Over 90%”, the “increase in Rb transcription” value (Rb; DS19/Sc9) is listed as 3.6 fold and the “increase in total pRb” value (Rb; DS19/Sc9 asynchronous cultures) is listed as 2-to 3 fold. For the same compound, the “increase in Rb mRNA” value (Rb) was 7 fold.
In the case of O=C1N[C@@H](Cc2ccccc2)C(=O)N2CCC[C@@H]2C(=O)N[C@@H](CCCCCC(=O)[C@@H]2CO2)C(=O)N[C@H]1Cc1ccccc1 [trapoxin] (cyclo(FF[dP][Aoe])), the “phosphorylation of ERK1/2” value (ERK1/2) is listed as “phosphorylation of ERK1/2”.
For interleukin 1β: cytokine, ERK agent, the “phosphorylation of ERK1/2” value (ERK1/2) is given as “phosphorylation of ERK1/2”.
For TNFα, the “decrease of nighttime feeding (12 hours)” value ([2]; 50 ng/rat) is given as 13%, the “decrease of short-term feeding (4 hours)” value ([2]; 50 ng/rat) is given as 17% and the “decrease of total daily food intake” value ([2]; 50 ng/rat) is given as 11%. The “decrease of nighttime feeding (12 hours)” value ([2]; 100 ng/rat) was 14%, the “decrease of short-term feeding (4 hours)” value ([2]; 100 ng/rat) was 20% and the “decrease of total daily food intake” value ([2]; 100 ng/rat) was 12%. For the same compound, the “decrease of nighttime feeding (12 hours)” value ([2]; 500 ng/rat) was 13%, the “decrease of short-term feeding (4 hours)” value ([2]; 500 ng/rat) was 20% and the “decrease of total daily food intake” value ([2]; 500 ng/rat) was 11%. For the same compound, the “AR transcription in run-on assays” value (AR gene; LNCaP) was “No change in run-on”, the “Effect on [mRNAAR]” value (AR gene; LNCaP) was “↓[mRNAAR]” and the “Effect on [ERK^phos]” value (ERK [3]) was “↑[ERK^phos]”. For the same compound, the scalp hair growth (anagen hair follicles) was “inhibition of scalp hair growth”.
For transforming growth factor β, the “phosphorylation of ERK1/2” value (ERK1/2) is listed as “phosphorylation of ERK1/2”.
In the case of [Cu+2] [Cu+2], the “TF mRNA level” value (TF; at 2 hours) is listed as 50% and the “increase of TF mRNA” value (TF; at 6 hours) is listed as 3.5 fold.
In the case of [Cu] [copper], the “phosphorylation of ERK1/2” value (ERK1/2) is listed as “phosphorylation of ERK1/2”.
In the case of interferon-γ: ERK agent cytokine, the “phosphorylation of ERK1/2” value (ERK1/2) is listed as “phosphorylation of ERK1/2”.
For C[C@]12CC[C@@H]3c4ccc(O)cc4CC[C@H]3[C@@H]1CCC2=O [estron], the “phosphorylation of ERK1/2” value (ERK1/2) is given as “phosphorylation of ERK1/2”.
In the case of CC[C@H](C)[C@@H]1NC(=O)[C@H](Cc2ccc(O)cc2)NC(=O)[C@@H](N)CSSC[C@@H](C(=O)N2CCC[C@H]2C(=O)N[C@@H](CC(C)C)C(=O)NCC(N)=O)NC(=O)[C@H](CC(N)=O)NC(=O)[C@H](CCC(N)=O)NC1=O [oxytocin], the “phosphorylation of ERK1/2” value (ERK1/2) is given as “phosphorylation of ERK1/2”.
In the case of IL-β: printed IL-β, presumably IL-1β, the scalp hair growth (anagen hair follicles) is given as “inhibition of scalp hair growth”.
In the case of C[C@H](CSC(=O)c1ccccc1)C(=O)N1C[C@@H](Sc2ccccc2)C[C@H]1C(=O)O [zofenopril], the “macrophage-derived foam cells staining in the intima” value (ACE [4]; 1 mg/kg/day) is listed as “significant decrease in macrophage-derived foam cells staining”, the “native LDL staining in the intima” value (ACE [4]; 1 mg/kg/day) is listed as “significant decrease in native LDL staining” and the “total lesion area compared to placebo” value (ACE [4]; zofenopril 0.05 or 1, captopril 5, enalapril 0.5 mg/kg/day, 29 weeks) is listed as “significantly decreased total lesion area”. For the same compound, the “decrease of aortic corrected cumulative lesion area” value (ACE [5]; 0.5 mg/kg/day, 6 weeks) was 34%, the “decrease of common carotid corrected cumulative lesion area” value (ACE [5]; 0.5 mg/kg/day, 6 weeks) was 39% and the “intimal presence of native LDL” value (ACE [5]; p<0.01 vs placebo) was “decreased”. For the same compound, the “intimal presence of macrophage derived foam cells” value (ACE [5]; p<0.05 vs placebo) was “decreased”.
In the case of CC(=O)O[C@]1(C(C)=O)CC[C@H]2[C@@H]3C=C(Cl)C4=CC(=O)[C@@H]5C[C@@H]5[C@]4(C)[C@H]3CC[C@@]21C [Cyproterone acetate], the “Effect on [mRNAAR]” value (AR gene; LNCaP) is given as “↓[mRNAAR]”.
In the case of CC(C)(Sc1cc(C(C)(C)C)c(O)c(C(C)(C)C)c1)Sc1cc(C(C)(C)C)c(O)c(C(C)(C)C)c1 [probucol], the “effect on Cu^+2 induced procoagulant activity” value (TF) is given as “inhibited the Cu^+2 induced procoagulant activity”.
In the case of CC(/C=C/C(=O)NO)=C\[C@@H](C)C(=O)c1ccc(N(C)C)cc1 [trichostatin A], the “phosphorylation of ERK1/2” value (ERK1/2) is listed as “phosphorylation of ERK1/2”.
In the case of CNc1ccc2oc(C[C@H]3O[C@@]4(CC[C@H]3C)O[C@H]([C@H](C)C(=O)c3ccc[nH]3)[C@H](C)C[C@H]4C)nc2c1C(=O)O [A 23187], the hair growth (anagen hair follicles; 6 days culture, A 23187 2 μM, TPA 1 μM, IL-1 100 ng per ml (Hoffmann 1997)) is listed as “significantly inhibited hair growth”.
In the case of C[S+](C)[O-] [DMSO, dimethyl sulfoxide], the “increase in Rb mRNA” value (Rb) is listed as 11 fold.
For estrogen, the “growth of isolated hair follicles” value (anagen hair follicles; Kondo 1990) is listed as “growth inhibition”.
In the case of C/C=C(/C)C(=O)O[C@H]1C(C)=C2[C@H]([C@@H]1OC(=O)CCCCCCC)[C@@](C)(OC(C)=O)C[C@H](OC(=O)CCC)[C@@]1(O)[C@H]2OC(=O)[C@@]1(C)O [thapsigargin], the “phosphorylation of ERK1/2” value (ERK1/2) is listed as “phosphorylation of ERK1/2”.
In the case of tumor necrosis factor α, the “phosphorylation of ERK1/2” value (ERK1/2) is listed as “phosphorylation of ERK1/2”.
